The results in this text go back to patent US10517863B2, “Trilobine and its natural analogs for use as a drug” (PIERRE FABRE MEDICAMENT, priority 2015, dated 2019).

Broadly, the inhibition is the drop in the measured response relative to a control, in per cent.

Assay [1] addresses T1, His-DNMT1 (182 kDa, human) (Homo sapiens, UniProt P26358).
T1 construct: His; made in house
Put plainly: hDNMT1 assay ([methyl-3H] SAM Flashplate). It counts as biochemical. Particulars: read-out: hDNMT1 percentage of inhibition. The protocol:
His-DNMT1 (182 kDa, human) was cloned, expressed and purified as described in the literature (Halby et al. ChemBioChem 2012, 13, 157-165). The reaction was performed in a […] total reaction volume in low volume NBS™ 384-well microplates (Corning), containing the tested compound (up to 1% DMSO), 1 μM of a SAM/[methyl-^3H] SAM (3 TBq/mmol, PerkinElmer) mix in a ratio of 3-to-1 (isotopic dilution 1*:3), 0.3 μM of biotinylated hemimethylated DNA duplex (5′-GATmCGCmCGATGmCGmCGAATmCGmCGATmCGATGmCGAT-3′ and BIOT-5′-[…]-3′), and 90 nM of DNMT1 in methylation buffer (20 mM HEPES pH 7.2, 1 mM EDTA, 50 mM KCl, 25 μg/mL BSA). The reaction was incubated at 37° C. for 2 hours. 8 μL, are then transferred into a streptavidin 96-well scintillant coated Flashplate™ (PerkinElmer) containing 190 μL of 20 μM SAH in 50 mM Tris-HCl pH 7.4. The Flashplate™ was agitated at room temperature for 1 hour and read in 200 μL of 50 mM Tris-HCl pH 7.4 on TopCount NXT (PerkinElmer). The percentage of inhibition is reported. The formula used to calculate the percentage of inhibition is [(X−Y)/X]×100, where X is the signal determined in the absence of the inhibitor and Y is the signal obtained in the presence of the inhibitor.

In assay [2] the test system is luciferase reporter under the control of a methylated CMV promoter in leukemia KG-1 cells. As to the kind of experiment: CMV-luc reexpression (luciferase reporter) in KG-1 cells. It counts as cell-based, human. The following applies: for Reactivation fold of luciferase gene reporter in KG-1 CMV-Luc: 24 hour incubation, fold induction vs DMSO, mean ± standard error. The protocol: Aiming at identifying new DNMT inhibitors, plant extract samples were tested for their ability to reactivate gene expression upon use of an integrated luciferase reporter system under the control of a methylated CMV promoter in leukemia KG-1 cells which inhibits its expression (CMV-luc assay reported in following Table). […] The extract was fractionated by preparative HPLC. Identification of the active components was accomplished by HRMS and NMR spectroscopy. The pure compounds isolated from the extract through bio-guided fractionation are trilobine and bisbenzylisoquinoline analogue products. The active compounds were then further evaluated for their ability to inhibit DNMTs in vitro and DNA methylation in cancer cells.
KG-1 cells were stably transfected with the firefly luciferase reporter gene (luc+ from pGL3; Promega) under the control of the cytomegalovirus (CMV) promoter (from pEGFP-N1; Clontech Laboratories Inc.) partially methylated (50%). 20,000 cells per well were seeded in a 96-well plate. After 24 hour incubation in the presence of the test compound or solvant (DMSO), the induction of the promoter was measured by quantification of the luciferase signal with the Brite-lite assay system (PerkinElmer) according to the manufacturer's protocol. The luminescence was measured on an EnVision multilabel plate reader (PerkinElmer), and the data are expressed as the fold induction as compared with the DMSO control. The mean of three experiments and the standard error is reported.

T1 sequence (P26358 whole entry): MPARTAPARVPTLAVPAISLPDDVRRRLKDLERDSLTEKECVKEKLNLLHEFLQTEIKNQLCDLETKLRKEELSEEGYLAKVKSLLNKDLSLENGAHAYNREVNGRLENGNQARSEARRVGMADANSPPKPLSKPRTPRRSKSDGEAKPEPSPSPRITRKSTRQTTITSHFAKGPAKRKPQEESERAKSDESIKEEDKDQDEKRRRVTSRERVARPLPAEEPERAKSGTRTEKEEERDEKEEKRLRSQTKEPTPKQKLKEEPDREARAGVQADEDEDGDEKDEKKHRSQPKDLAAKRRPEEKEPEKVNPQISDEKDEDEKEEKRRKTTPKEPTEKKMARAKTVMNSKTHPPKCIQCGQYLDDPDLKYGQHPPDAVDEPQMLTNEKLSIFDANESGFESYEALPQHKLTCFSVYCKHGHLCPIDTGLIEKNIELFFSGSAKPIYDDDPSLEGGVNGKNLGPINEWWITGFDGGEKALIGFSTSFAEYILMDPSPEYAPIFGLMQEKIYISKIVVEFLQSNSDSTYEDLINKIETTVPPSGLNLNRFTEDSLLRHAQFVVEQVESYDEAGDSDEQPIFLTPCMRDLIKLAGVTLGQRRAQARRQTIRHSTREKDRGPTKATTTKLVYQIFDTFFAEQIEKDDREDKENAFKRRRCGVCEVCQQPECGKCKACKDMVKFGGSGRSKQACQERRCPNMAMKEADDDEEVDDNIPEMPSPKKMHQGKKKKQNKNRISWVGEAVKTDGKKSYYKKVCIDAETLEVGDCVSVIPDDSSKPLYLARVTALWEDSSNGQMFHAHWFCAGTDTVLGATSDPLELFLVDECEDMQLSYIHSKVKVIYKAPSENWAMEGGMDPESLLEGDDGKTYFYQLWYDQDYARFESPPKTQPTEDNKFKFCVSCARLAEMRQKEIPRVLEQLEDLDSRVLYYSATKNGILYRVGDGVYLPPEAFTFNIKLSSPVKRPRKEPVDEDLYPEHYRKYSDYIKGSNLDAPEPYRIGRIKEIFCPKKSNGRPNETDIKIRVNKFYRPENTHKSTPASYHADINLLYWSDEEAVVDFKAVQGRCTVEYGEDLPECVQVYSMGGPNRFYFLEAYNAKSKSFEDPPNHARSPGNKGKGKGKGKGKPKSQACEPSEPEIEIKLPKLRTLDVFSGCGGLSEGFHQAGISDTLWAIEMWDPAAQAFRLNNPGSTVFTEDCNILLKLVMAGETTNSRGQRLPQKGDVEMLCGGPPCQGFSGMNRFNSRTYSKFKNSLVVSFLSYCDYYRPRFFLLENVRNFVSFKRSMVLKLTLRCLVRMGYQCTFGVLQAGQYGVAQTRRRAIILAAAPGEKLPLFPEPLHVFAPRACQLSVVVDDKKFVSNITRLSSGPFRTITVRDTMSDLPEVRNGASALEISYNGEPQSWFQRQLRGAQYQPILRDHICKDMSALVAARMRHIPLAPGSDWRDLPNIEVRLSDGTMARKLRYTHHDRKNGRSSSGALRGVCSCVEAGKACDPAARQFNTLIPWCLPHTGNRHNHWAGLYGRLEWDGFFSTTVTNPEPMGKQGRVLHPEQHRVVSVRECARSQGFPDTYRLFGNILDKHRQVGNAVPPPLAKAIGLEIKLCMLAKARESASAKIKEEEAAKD

`COc1ccc2cc1Oc1ccc(cc1)C[C@@H]1NCCc3cc(OC)c4c(c31)Oc1cc3c(cc1O4)CCN(C)[C@H]3C2` [Compound 1, Trilobine]: in assay [1], the inhibition at 32 µM is 50%. Besides, the “Reactivation fold of luciferase gene reporter in KG-1 CMV-Luc” value is 1.1 ± 0.1 fold in assay [2] (0.1 μM); 1.9 ± 1.2 fold in assay [2] (0.32 μM); 1.6 ± 0.8 fold in assay [2] (0.5 μM); 2.6 ± 1.4 fold in assay [2] (1 μM); 3.5 ± 1.1 fold in assay [2] (3.2 μM); 6.4 ± 0.1 fold in assay [2] (5 μM). Also, the “FI-24 h, KG1 CMV-Luc model” value in assay [2] (at 5 μM, 24 h) came out at 5.8 ± 0.6.
